Results: patent EP0415456A2, “Xanthine compounds” (priority 1989, dated 1991)
Read-outs that look alike come from different tables or passages of the source.

Legend:
[1] = test system: Wistar rats; assay: diuretic effect; format: in vivo; conditions: urine collected for 6 hours; for Increase in K⁺ excretion (%) / Increase in Na⁺excretion (%) / Increase in Urine (%): relative to control; for Na⁺/K⁺: relative value of control (control 1.00)
Protocol: Wistar rats (male: 150 - 300 g) were starved for 18 hours prior to the administration of the test compounds. […] Urine was collected for 6 hours after the administration. Urine volume was measured and the electrolytes (Na+ and K+) in the urine were determined with a flame photome[…], Hitachi Ltd., Japan). All parameters are expressed as relative values of control.

[2] = test system: glycerol-induced renal failure model; assay: renal-protecting effect (glycerol-induced renal failure model); format: in vivo; conditions: male Wistar rats; for suppression of increases of the serum creatinine and of urine-nitrogen: 0.01 - 10 mg/kg i.p., 24 hours after 50% glycerol s.c. (p < 0.05)
Protocol: A renal failure is a state wherein the renal function is lowered and the homeostasis of a body fluid can be no more maintained. It is known that an acute renal failure characteristic of uriniferous tubule disorder is caused by subcutaneous or intramuscular injection of glycerol to rats [Can. J. Physiol.
Male Wistar rats were kept deprived or water for 18 hours, and served for the test. A test compound was intraperitoneally administered to the rats (dosage: 1 mℓ/kg) and the rats were anesthetized with ether and 50% glycerol was subcutaneously administered (dosage: 0.8mℓ/100g) to the rats, pinching the dorsal skin. Twenty four hours after the administration of glycerol, the rats were anesthetized with ether and 5 mℓ of blood were collected from the abdominal aorta. The collected blood was allowed to stand for 30 minutes or longer and then centrifuged at 3,000 rpm for 10 minutes, and the amounts of the serum creatinine and urine-nitrogen (UN) contained in the serum were determined by auto analyzer (Olympus AU510) or measured by a creatinine test Wako (Jaffé method) and UN Test Wako (diacetylmonooxime direct method). Both are manufactured by Wako Pure Chemicals Co.
On the other hand, the left kidneys of the blood-sampled rats were removed and placed in formalin-filled vial bottles, and used as samples for the pathological examination.

[3] = test system: male dd-strain mice; assay: acute toxicity test; format: in vivo
Protocol: […]. The Minimum lethal dose (MLD) of the compounds was determined by observing whether or not the mice were alive after 7 days of the administration.

[4] = target: T1, A₂ receptor (Rattus norvegicus, UniProt P30543); assay: Adenosine A2 receptor binding (3H-NECA binding); conditions: for inhibition at 10 µM / inhibition at 100 µM: read-out: A₂ Receptor Inhibition (%)
T1 construct: A precipitate was prepared from rat corpus striatum; from tissue; host or cells: rat corpus striatum membrane preparation
Protocol: A precipitate was prepared from rat corpus striatum in a similar manner as in 1) above. The precipitate was suspended by adding a 50 mM Tris HCl buffer containing 10 mM magnesium chloride and 0.02 unit/mg (tissue) of adenosine deaminase (manufactured by Sigma Co.) to adjust the concentration of tissue to 5 mg (wet weight)/mℓ.
The mixture was incubated at 25°C within 120 minutes. The resulting mixture was treated in the same manner as in 1) above to determine its radioactivity.
The inhibition rate of the test compound against the binding of A₂ receptor (³H-NECA binding) was calculated from the following equation: [formula]

[5] = target: T2, Adenosine A₁ Receptor (Cavia porcellus, UniProt P47745); assay: Adenosine A1 receptor binding (3H-CHA binding); set-up: species or system guinea pig; conditions: for Ratio of Ki Values [A₂/A₁]: A₂ Ki (rat corpus striatum) / A₁ Ki (guinea pig cerebrum); for Ki: calculated from Cheng-Prusoff's equation, ³H-CHA; for Ki / inhibition at 100 µM / inhibition at 10 µM: guinea pig cerebrum; for inhibition at 100 µM: concentration of tested compound 10⁻⁴ M; for inhibition at 100 µM / inhibition at 10 µM: ³H-CHA 1.1 nM; for inhibition at 10 µM: concentration of tested compound 10⁻⁵ M
T2 construct: from tissue; host or cells: guinea pig cerebrum membrane preparation
T2 sequence (P47745 1-326): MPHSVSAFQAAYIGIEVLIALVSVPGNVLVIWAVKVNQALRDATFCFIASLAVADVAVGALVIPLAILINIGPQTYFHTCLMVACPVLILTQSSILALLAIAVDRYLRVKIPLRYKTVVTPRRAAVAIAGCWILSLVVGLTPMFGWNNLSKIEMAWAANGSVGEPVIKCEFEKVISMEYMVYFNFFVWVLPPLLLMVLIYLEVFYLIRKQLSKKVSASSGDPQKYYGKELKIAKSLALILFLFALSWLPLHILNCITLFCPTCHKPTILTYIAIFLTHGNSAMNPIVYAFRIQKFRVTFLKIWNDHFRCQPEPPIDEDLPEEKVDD
Protocol: Cerebrum of a guinea pig was suspended into ice cooled 50 mM tris hydroxymethyl aminomethane hydrochloride (Tris HCl) buffer (pH = 7.7), by using Polytron homogenizer (manufactured by Kinematica Co.). The suspension was centrifuged (50,000 x g, 10 minutes), and the precipitate was resuspended by adding the same volume of 50 mM Tris HCl buffer. The suspension was centrifuged under the same conditions, and the precipitate obtained was suspended once again by adding 10 volumes of 50 mM Tris HCl. The tissue suspension was incubated at 37°C for 30 minutes in the presence of 0.02 units/mg tissue of adenosine deaminase (manufactured by Sigma Co.). The resulting tissue suspension was recentrifuged (50,000 x g, 10 minutes), and 50 mM Tris HCl was added to the precipitate to adjust the concentration of tissue to 10 mg (wet weight)/mℓ.
The mixture was incubated at 25°C for 90 minutes, and the resulting reaction was stopped by rapid vacuum filtration through a glass fiber filter (GF/C manufactured by Whatman Co.) followed by immediately washing three times with 5 mℓ each of ice cold 50 mM Tris HCl buffer. […] Its radioactivity was then determined by a scintillation counter (manufactured by Packard Instrument Co.).
The inhibition rate of the test compounds against the binding of A₁ […] (³H-CHA binding) was calculated from the following equation: [formula]
• 1. […] The inhibition constant (Ki value) shown in the table was calculated from Cheng-Prusoff's equation.

[6] = ³H-NECA with CPA, rat corpus striatum, read-out: A₂ Receptor Ki
[7] = amount of the administration 6.25 mg.kg, oral
[8] = 300 mg/kg orally administered, male dd-strain mice, observed 7 days after administration

T1 sequence (P30543 whole entry): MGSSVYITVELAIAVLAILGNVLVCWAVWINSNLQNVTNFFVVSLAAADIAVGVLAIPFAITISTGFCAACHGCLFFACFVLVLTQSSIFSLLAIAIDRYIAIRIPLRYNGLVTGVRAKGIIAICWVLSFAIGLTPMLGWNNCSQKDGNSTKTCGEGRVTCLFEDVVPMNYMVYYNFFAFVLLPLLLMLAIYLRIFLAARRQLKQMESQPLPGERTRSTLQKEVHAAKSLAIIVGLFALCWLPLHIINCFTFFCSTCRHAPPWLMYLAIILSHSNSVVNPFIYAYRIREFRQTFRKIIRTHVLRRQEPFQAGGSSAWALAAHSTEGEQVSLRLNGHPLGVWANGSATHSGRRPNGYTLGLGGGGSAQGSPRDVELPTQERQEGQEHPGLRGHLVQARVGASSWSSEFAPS

8-[(1R*,2R*,5S*)-Bicyclo[2.2.1]heptan-2-yl]methyl-1,3-dipropylxanthine [Compound 16]
Increase in K⁺ excretion (%) ([1]; 25 mg/kg oral): 38%
Increase in Na⁺excretion (%) ([1]; 25 mg/kg oral): 191%
Increase in Urine (%) ([1]; 25 mg/kg oral): 141%
Na⁺/K⁺ ([1]; 25 mg/kg oral): 2.12
suppression of increases of the serum creatinine and of urine-nitrogen [2]: significantly suppressed
pathological examination of removed kidneys: state of kidneys ([2]; i.p., left kidney removed 24 hours after 50% glycerol s.c.): significantly improved

CCCn1c(=O)c2[nH]c([C@@H]3C[C@@H]4C=C[C@@H]3C4)nc2n(CCC)c1=O (relative stereo) [Compound 2, 8-[(1R*,4S*,5R*)-2-bicyclo[2.2.1]hepten-5-yl]-1,3-dipropylxanthine]
Minimum lethal dose (MLD) ([3]; mouse, in vivo, 10080 min): more than 300 mg/kg
Increase in K⁺ excretion (%) ([1]; 25 mg/kg oral): 67%
Increase in Na⁺excretion (%) ([1]; 25 mg/kg oral): 109%
Increase in Urine (%) ([1]; 25 mg/kg oral): 87%
Na⁺/K⁺ ([1]; 25 mg/kg oral): 1.25

CCCn1c(=O)c2[nH]c([C@H]3CC[C@H]4CCC[C@H]43)nc2n(CCC)c1=O (relative stereo) [Compound 6, 8-[(1R*,2S*,5R*)-bicyclo[3.3.0]oxtan-2-yl]-1,3-dipropylxanthine]
inhibition at 10 µM [4]: 70%
inhibition at 100 µM [4]: 85%
Ki [4, 6]: 0.56 µM
Increase in K⁺ excretion (%) [1, 7]: 87%
Increase in Na⁺excretion (%) [1, 7]: 252%
Increase in Urine (%) [1, 7]: 330%
Na⁺/K⁺ [1, 7]: 1.88
Ratio of Ki Values [A₂/A₁] [5]: 112
Ki [5]: 0.005 µM
inhibition at 100 µM [5]: 101%
inhibition at 10 µM [5]: 100%

CCCn1c(=O)c2c(nc([C@@H]3CC[C@H]4CCC[C@H]43)n2C)n(CCC)c1=O (relative stereo) [Compound 18, 8-[(1R*,2R*,5R*)-Bicyclo[3.3.0]octan-2-yl]-1,3-dipropyl-7-methylxanthine]
Minimum lethal dose (MLD) ([3]; mouse, in vivo, 10080 min): more than 300 mg/kg

CCCn1c(=O)c2[nH]c([C@@H]3CC[C@H]4CCC[C@H]43)nc2n(CCC)c1=S (relative stereo) [Compound 24, 8-[(1R*,2R*,5R*)-Bicyclo[3.3.0]octan-2-yl]-1,3-dipropyl-2-thioxanthine]
Minimum lethal dose (MLD) [3, 8]: more than 300 mg/kg
Increase in K⁺ excretion (%) ([1]; 25 mg/kg oral): 61%
Increase in Na⁺excretion (%) ([1]; 25 mg/kg oral): 125%
Increase in Urine (%) ([1]; 25 mg/kg oral): 112%
Na⁺/K⁺ ([1]; 25 mg/kg oral): 1.40

Cn1c(=O)c2[nH]cnc2n(C)c1=O [Aminophylline, reference compound]
Increase in K⁺ excretion (%) ([1]; 25 mg/kg oral): 17%
Increase in Na⁺excretion (%) ([1]; 25 mg/kg oral): 89%
Increase in Urine (%) ([1]; 25 mg/kg oral): 34%
Na⁺/K⁺ ([1]; 25 mg/kg oral): 1.62
suppression of increases of the serum creatinine and of urine-nitrogen [2]: weak effect

Nc1nc2ccc(Cl)cc2c2nc(-c3ccco3)nn12 [CGS 15943, reference compound]
Ki [4]: 0.00073 µM
inhibition at 10 µM [4]: 99%
inhibition at 100 µM [4]: 97%

CCCn1c(=O)c2nc(C3CC4CCC3C4)[nH]c2n(CCC)c1=O (stereo not drawn) [Compound 4, 8-[(1R*,2R*,5S*)-bicyclo[2.2.1)heptan-2-yl]-1,3-dipropylxanthine]
Minimum lethal dose (MLD) ([3]; mouse, in vivo, 10080 min): more than 300 mg/kg
Increase in K⁺ excretion (%) ([1]; 25 mg/kg oral): 27%
Increase in Na⁺excretion (%) ([1]; 25 mg/kg oral): 106%
Increase in Urine (%) ([1]; 25 mg/kg oral): 113%
Na⁺/K⁺ ([1]; 25 mg/kg oral): 1.63

CCCn1c(=O)c2[nH]c(Cc3csc(N)n3)nc2n(CCC)c1=O [Compound 12, 8-(2-Aminothiazol-4-yl)methyl-1,3-dipropylxanthine]
Minimum lethal dose (MLD) [3, 8]: 300 mg/kg
Increase in K⁺ excretion (%) ([1]; 25 mg/kg oral): 32%
Increase in Na⁺excretion (%) ([1]; 25 mg/kg oral): 103%
Increase in Urine (%) ([1]; 25 mg/kg oral): 108%
Na⁺/K⁺ ([1]; 25 mg/kg oral): 1.54

CCCn1c(=O)c2nc(CC34CC5CC(CC(C5)C3)C4)[nH]c2n(CCC)c1=O [Compound 15, 8-(Adamantan-1-yl)methyl-1,3-dipropylxanthine]
Minimum lethal dose (MLD) ([3]; mouse, in vivo, 10080 min): more than 300 mg/kg

CCCn1c(=O)c2c(nc(C34CC5CC(CC3C5)C4)n2C)n(CCC)c1=O [Compound 20, 1,3-Dipropyl-7-methyl-8-(noradamantan-3-yl)xanthine]
Minimum lethal dose (MLD) [3, 8]: more than 300 mg/kg

CCn1c(=O)c2[nH]c(C34CC5CC(CC3C5)C4)nc2n(CC)c1=O [Compound 28, 8-(Noradamantan-3-yl)-1,3-diethylxanthine]
inhibition at 10 µM [4]: 61%
inhibition at 100 µM [4]: 78%
Ki [4, 6]: 0.94 µM
Ratio of Ki Values [A₂/A₁] [5]: 132
Ki [5]: 0.0071 µM
inhibition at 100 µM [5]: 101%
inhibition at 10 µM [5]: 100%

CCCCn1c(=O)c2[nH]c(C34CC5CC(CC3C5)C4)nc2n(CCCC)c1=O [Compound 29, 8-(Noradamantan-3-yl)-1,3-dibutylxanthine]
inhibition at 10 µM [4]: 72%
inhibition at 100 µM [4]: 78%
Ki [4, 6]: 0.97 µM
Increase in K⁺ excretion (%) ([1]; 25 mg/kg oral): 65%
Increase in Na⁺excretion (%) ([1]; 25 mg/kg oral): 137%
Increase in Urine (%) ([1]; 25 mg/kg oral): 123%
Na⁺/K⁺ ([1]; 25 mg/kg oral): 1.43
Ratio of Ki Values [A₂/A₁] [5]: 107
Ki [5]: 0.0091 µM
inhibition at 100 µM [5]: 100%
inhibition at 10 µM [5]: 100%

CC(C)Cn1c(=O)n(C)c(=O)c2[nH]c(C34CC5CC(CC3C5)C4)nc21 [Compound 30, 8-(Noradamantan-3-yl)-3-isobutyl-1-methylxanthine]
Increase in K⁺ excretion (%) ([1]; 25 mg/kg oral): 50%
Increase in Na⁺excretion (%) ([1]; 25 mg/kg oral): 126%
Increase in Urine (%) ([1]; 25 mg/kg oral): 112%
Na⁺/K⁺ ([1]; 25 mg/kg oral): 1.50

CCCn1c(=S)c2[nH]c(C34CC5CC(CC3C5)C4)nc2n(CCC)c1=O [Compound 32, 8-(Noradamantan-3-yl)-1,3-dipropyl-6-thioxanthine]
Minimum lethal dose (MLD) ([3]; mouse, in vivo, 10080 min): more than 300 mg/kg
Increase in K⁺ excretion (%) ([1]; 25 mg/kg oral): 41%
Increase in Na⁺excretion (%) ([1]; 25 mg/kg oral): 114%
Increase in Urine (%) ([1]; 25 mg/kg oral): 100%
Na⁺/K⁺ ([1]; 25 mg/kg oral): 1.51

NS(=O)(=O)c1cc(C(=O)O)c(NCc2ccco2)cc1Cl [Furosemide, reference compound]
Increase in Urine (%) ([1]; 25 mg/kg oral): 75%
Na⁺/K⁺ ([1]; 25 mg/kg oral): 1.07
effect on serum creatinine ([2]; i.p., 24 hours after 50% glycerol s.c.): showed a tendency to increase the serum creatinine

CCCn1c(=O)c2[nH]c(-c3ccc(S(=O)(=O)N(C)CCN(C)C)cc3)nc2n(CCC)c1=O [PD 115199, reference compound]
inhibition at 10 µM [4]: 94%
inhibition at 100 µM [4]: 98%
Ki [4, 6]: 0.026 µM
suppression of increases of the serum creatinine and of urine-nitrogen [2]: totally ineffective
Ratio of Ki Values [A₂/A₁] [5]: 0.14
Ki [5]: 0.19 µM
inhibition at 100 µM [5]: 100%
inhibition at 10 µM [5]: 97%

CCCn1c(=O)c2[nH]c(-c3ccc(OCC(=O)NCCN)cc3)nc2n(CCC)c1=O [XAC, reference compound]
suppression of increases of the serum creatinine and of urine-nitrogen [2]: weak effect
